From patent US20080132505A1 (Glaxo Group Limited, priority 2004, published 2008)
Where two headings read alike, the source gives them in different places. Each block holds one molecule with its values, some of them ahead of it.

Biological target: human cannabinoid CB2 receptor (Homo sapiens, UniProt P34972)
Test: Cannabinoid CB2 receptor agonist activity (yeast reporter assay, FDGlu fluorescence)
Assay type: cell-based
Conditions: for Emax: read-out: efficacy value (Emax relative to HU210) at the cloned human cannabinoid CB2 receptor
Procedure, shortened: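 S. cerevisiae MMY23 expressing human CB2 with a Gpa1/Gαi3 chimeric G-protein, grown 24 h at 30 °C with agonist (1% DMSO) in selective media containing 10 mM 3-aminotriazole and FDGlu, pH 7.0. Fluorescein fluorescence (485/535 nm) fitted by four-parameter curve; Emax and EMR relative to HU210.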

[1] = EC50 value at the cloned human cannabinoid CB2 receptor
[2] = read-out: EC50 value at the cloned human cannabinoid CB2 receptor

Chain of human cannabinoid CB2 receptor (P34972 whole entry): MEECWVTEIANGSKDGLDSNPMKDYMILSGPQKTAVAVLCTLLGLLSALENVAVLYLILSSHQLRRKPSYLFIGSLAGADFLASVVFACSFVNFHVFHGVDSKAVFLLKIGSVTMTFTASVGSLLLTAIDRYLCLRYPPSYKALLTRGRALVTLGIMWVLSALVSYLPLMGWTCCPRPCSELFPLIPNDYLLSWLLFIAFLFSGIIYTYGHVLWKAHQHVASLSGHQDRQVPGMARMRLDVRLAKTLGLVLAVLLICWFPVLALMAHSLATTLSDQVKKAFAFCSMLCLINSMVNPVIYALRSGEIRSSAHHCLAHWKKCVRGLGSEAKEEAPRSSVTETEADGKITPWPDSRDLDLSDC

Compound: O=C(NCc1ccnc(F)c1)c1cnc(Nc2cccc(Br)c2)nc1C(F)(F)F [Example 353, 2-(3-Bromo-phenylamino)-4-trifluoromethyl-pyrimidine-5-carboxylic acid (2-fluoro-pyridin-4-ylmethyl)-amide]
EC50 [1]: 20 to 300 nM

Compound: O=C(NCc1ccnc(F)c1)c1cnc(Nc2ccc(Cl)c(Cl)c2)nc1C(F)(F)F [Example 357, 2-(3,4-Dichloro-phenylamino)-4-trifluoromethyl-pyrimidine-5-carboxylic acid (2-fluoro-pyridin-4-ylmethyl)-amide]
EC50 [1]: 20 to 300 nM

Compound: CS(=O)(=O)N1CCN(C(=O)c2cnc(Nc3cccc(Cl)c3)nc2C(F)(F)F)CC1 [Example 79, 1-[2-(3-chlorophenylamino)-4-trifluoromethyl-pyrimidin-5-yl]-1-(4-methanesulfonyl-piperazin-1-yl)-methanone]
EC50 [1]: 300 to 1000 nM
Emax: > 50%

Compound: O=C(NCc1ccnc(F)c1)c1cnc(Nc2cccc(Cl)c2Cl)nc1C(F)(F)F [Example 359, 2-(2,3-Dichloro-phenylamino)-4-trifluoromethyl-pyrimidine-5-carboxylic acid (2-fluoro-pyridin-4-ylmethyl)-amide]
EC50 [1]: 20 to 300 nM

Compound: COc1cccc(Nc2ncc(C(=O)NCc3ccncc3)c(C(F)(F)F)n2)c1 [Example 352, 2-(3-Methoxy-phenylamino)-4-trifluoromethyl-pyrimidine-5-carboxylic acid (pyridin-4-ylmethyl)-amide]
EC50 [1]: 20 to 300 nM

Compound: N#Cc1ccc(Nc2ncc(C(=O)NCC3CCCC3)c(C(F)(F)F)n2)cc1Cl [Example 219, 2-(4-Cyano-3-chloro-phenylamino)-4-trifluoromethyl-pyrimidine-5-carboxylic acid cyclopentylmethyl-amide]
EC50 [1]: 20 to 300 nM
Emax: > 50%

Compound: Cc1ccc(Cl)cc1Nc1ncc(C(=O)NCC2CCC2)c(C(F)(F)F)n1 [Example 259, 2-(5-Chloro-2-methylphenylamino)-4-trifluoromethyl-pyrimidine-5-carboxylic acid cyclobutylmethyl-amide]
EC50 [1]: 300 to 1000 nM
Emax: > 50%

Compound: O=C(c1cnc(Nc2ccccc2)nc1C(F)(F)F)N1CCOCC1 [Example 25, 1-Morpholin-4-yl-1-(2-phenylamino-4-trifluoromethyl-pyrimidin-5-yl)-methanone]
EC50 [1]: 300 to 1000 nM
Emax: > 50%

Compound: Cc1cc(Cl)ccc1Nc1ncc(C(=O)NCC2CCOCC2)c(C(F)(F)F)n1 [Example 112, 2-(4-Chloro-2-methyl-phenylamino)-4-tri-fluoromethyl-pyrimidine-5-carboxylic acid (tetrahydropyran-4-ylmethyl)-amide]
EC50 [1]: 300 to 1000 nM
Emax: > 50%

Compound: O=C(NC1CCCC1)c1cnc(Nc2cccc(Cl)c2)nc1C(F)(F)F [Example 14, 2-(3-Chlorophenylamino)-4-trifluoromethylpyrimidine-5-carboxylic acid cyclopentylamide]
EC50 [1]: 20 to 300 nM
Emax: > 50%

activity in the CB2 assay described herein: inactive
Compound: COc1ccccc1CNC(=O)c1cnc(Nc2cccc(Cl)c2)nc1C(F)(F)F [2-(3-Chloro-phenylamino)-4-trifluoromethyl-pyrimidine-5-carboxylic acid 2-methoxy-benzylamide]

Compound: O=C(c1cnc(Nc2cccc(Cl)c2)nc1C(F)(F)F)N1CCCCC1 [Example 1, 1-[2-(3-Chlorophenylamino)-4-trifluoromethylpyrimidin-5-yl]-1-piperidin-1-ylmethanone]
EC50 [1]: 20 to 300 nM
Emax: > 50%

Compound: Cc1cc(Cl)ccc1Nc1ncc(C(=O)NCC2CCCCC2)c(C(F)(F)F)n1 [Example 94, 2-(4-Chloro-2-methyl-phenylamino)-4-trifluoromethyl-pyrimidine-5-carboxylic acid cyclohexylmethyl-amide]
EC50 [1]: 300 to 1000 nM
Emax: > 50%

Compound: CC(C)c1cc(Nc2cccc(Cl)c2)ncc1C(=O)NCC1CCS(=O)(=O)C1 (stereo not shown) [Example 681, 6-(3-Chloro-phenylamino)-N-(1,1-dioxo-tetrahydro-1l^6-thiophen-3-ylmethyl)-4-isopropyl-nicotinamide]
Emax: > 50%

Compound: O=C(NCC1CCC1)c1cnc(Nc2ccc(C(F)(F)F)c(F)c2)nc1C(F)(F)F [Example 196, 2-(3-Fluoro-4-trifluoromethylphenylamino)-4-trifluoromethyl-pyrimidine-5-carboxylic acid cyclobutylmethyl-amide]
EC50 [1]: 20 to 300 nM
Emax: > 50%

Compound: O=C(NCC1CCCC1)c1cnc(Nc2cccc(Br)c2)nc1C(F)(F)F [Example 39, 2-(3-Bromophenylamino)-4-trifluoromethylpyrimidine-5-carboxylic acid cyclopentylmethyl-amide]
EC50 [1]: 20 to 300 nM
Emax: > 50%

Compound: O=C(NCC1CCCC1)c1cnc(Nc2ccc(Cl)c(Cl)c2)nc1C(F)(F)F [Example 44, 2-(3,4-Dichlorophenylamino)-4-trifluoromethylpyrimidine-5-carboxylic acid cyclopentylmethyl-amide]
EC50 [1]: 20 to 300 nM
Emax: > 50%

Compound: O=C(NCC1CCOCC1)c1cnc(Nc2cc(C(F)(F)F)cc(C(F)(F)F)c2)nc1C(F)(F)F [Example 178, 2-(3,5-Bis-trifluoromethylphenylamino)-4-trifluoromethyl-pyrimidine-5-carboxylic acid (tetrahydropyran-4-ylmethyl)-amide]
EC50 [1]: 20 to 300 nM
Emax: > 50%

Compound: O=C(NCc1ccnc(F)c1)c1cnc(Nc2cc(Cl)ccc2Cl)nc1C(F)(F)F [Example 355, 2-(2,5-Dichloro-phenylamino)-4-trifluoromethyl-pyrimidine-5-carboxylic acid (2-fluoro-pyridin-4-ylmethyl)-amide]
EC50 [1]: 20 to 300 nM

Compound: O=C(NCc1ccnc(F)c1)c1cnc(Nc2c(Cl)cccc2Cl)nc1C(F)(F)F [Example 358, 2-(2,6-Dichloro-phenylamino)-4-trifluoromethyl-pyrimidine-5-carboxylic acid (2-fluoro-pyridin-4-ylmethyl)-amide]
EC50 [1]: 20 to 300 nM

Compound: O=C(NCC1CCOCC1)c1cnc(Nc2cc(Cl)cc(Cl)c2)nc1C(F)(F)F [Example 36, 2-(3,5-Dichlorophenylamino)-4-trifluoromethylpyrimidine-5-carboxylic acid (tetrahydropyran-4-ylmethyl)-amide]
EC50 [1]: 20 to 300 nM
Emax: > 50%

Compound: COc1cccc(Nc2ncc(C(=O)NCC3CCC3)c(C(F)(F)F)n2)c1 [Example 205, 2-(3-Methoxyphenylamino)-4-trifluoromethyl-pyrimidine-5-carboxylic acid cyclobutylmethyl-amide]
EC50 [1]: 20 to 300 nM
Emax: > 50%

Compound: O=C(NCc1ccc(F)cc1)c1cnc(Nc2cc(Cl)cc(Cl)c2)nc1C(F)(F)F [Example 290, 2-(3,5-Dichlorophenylamino)-4-trifluoromethylpyrimidine-5-carboxylic acid 4-fluorobenzyl-amide]
EC50 [1]: 20 to 300 nM

Compound: O=C(NCC1CCC1)c1cnc(Nc2cc(Cl)ccc2Cl)nc1C(F)(F)F [Example 202, 2-(2,5-Dichlorophenylamino)-4-trifluoromethyl-pyrimidine-5-carboxylic acid cyclobutylmethyl-amide]
EC50 [1]: 20 to 300 nM
Emax: > 50%

Compound: Cc1ccc(Cl)cc1Nc1ncc(C(=O)NCC2CCOCC2)c(C(F)(F)F)n1 [Example 108, 2-(5-Chloro-2-methyl-phenylamino)-4-tri-fluoromethyl-pyrimidine-5-carboxylic acid (tetrahydropyran-4-ylmethyl)-amide]
EC50 [1]: 300 to 1000 nM
Emax: > 50%

EC50 [2]: 20 to 300 nM
Compound: COc1cccc(Nc2ncc(C(=O)NCC3CCCCC3)c(C(F)(F)F)n2)c1 [Example 163, 2-(3-Methoxyphenylamino)-4-trifluoromethyl-pyrimidine-5-carboxylic acid cyclohexylmethyl-amide]

Compound: O=C(NCC1CCCCC1)c1cnc(Nc2cccc(F)c2F)nc1C(F)(F)F [Example 242, 2-(2,3-Difluorophenylamino)-4-trifluoromethyl-pyrimidine-5-carboxylic acid cyclohexylmethyl-amide]
EC50 [1]: 20 to 300 nM
Emax: > 50%

Compound: O=C(NC1CCC1)c1cnc(Nc2cccc(Cl)c2)nc1C(F)(F)F [Example 23, 2-(3-Chlorophenylamino)-4-trifluoromethylpyrimidine-5-carboxylic acid cyclobutyl-amide]
EC50 [1]: 20 to 300 nM
Emax: > 50%

EC50 [2]: 20 to 300 nM
Compound: O=C(NCc1ccc(F)cc1)c1cnc(Nc2cccc(Cl)c2)nc1C(F)(F)F [Example 270, 2-(3-Chlorophenylamino)-4-trifluoromethylpyrimidine-5-carboxylic acid 4-fluorobenzyl-amide]

Compound: O=C(NCC1CCOCC1)c1cnc(Nc2ccc(C(F)(F)F)cc2Cl)nc1C(F)(F)F [Example 236, 2-(2-Chloro-4-trifluoromethyl-phenylamino)-4-trifluoromethyl-pyrimidine-5-carboxylic acid (tetrahydro-pyran-4-ylmethyl)-amide]
EC50 [1]: 20 to 300 nM
Emax: > 50%

Compound: O=C(NCC1CCC1)c1cnc(Nc2ccc(Cl)c(Cl)c2)nc1C(F)(F)F [Example 204, 2-(3,4-Dichlorophenylamino)-4-trifluoromethyl-pyrimidine-5-carboxylic acid cyclobutylmethyl-amide]
EC50 [1]: 20 to 300 nM
Emax: > 50%

Compound: O=C(NCC1(O)CCOCC1)c1cnc(Nc2cccc(Br)c2)nc1C(F)(F)F [Example 87, 2-(3-Bromophenyl-amino)-4-trifluoromethyl-pyrimidine-5-carboxylic acid (4-hydroxytetrahydropyran-4-ylmethyl)amide]
EC50 [1]: 300 to 1000 nM
Emax: > 50%

Compound: O=C(NCC1CCOCC1)c1cnc(Nc2cccc(Cl)c2Cl)nc1C(F)(F)F [Example 33, 2-(2,3-Dichlorophenylamino)-4-trifluoromethylpyrimidine-5-carboxylic acid (tetrahydropyran-4-ylmethyl)amide]
EC50 [1]: 20 to 300 nM
Emax: > 50%
